Measurements as given in the supplement of paper PMC10307832.

What was measured:
Assay in all cases: relative viability (nuclei count vs DMSO), 5 days (fraction); higher = more cells survive
[1] = compound: C1CN(CCN1)C2=CC=C(C=C2)C3=CN4C(=C(C=N4)C5=CC=NC6=CC=CC=C56)N=C3 [DM3189]
Outline: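 Viability was defined as treated-well nuclei divided by vehicle-well nuclei, with the median taken over replicate plates. Cells from lung cancer lines sat overnight at 37 °C in 1536-well plates, received five √10-spaced library-drug doses by pinning on vehicle-anchored plates, and grew 5 days without medium change before one-step fixation, permeabilisation and Hoechst staining, 4× imaging and MetaXpress nuclear counts. Only plates with control CV under 25% and at least one doubling were kept.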

[2] = compound: C1CN(CCN1)C2=CC=C(C=C2)C3=CN4C(=C(C=N4)C5=CC=NC6=CC=CC=C56)N=C3 [DM3189] + CC1(C)CCC(c2ccc(Cl)cc2)=C(CN2CCN(c3ccc(C(=O)NS(=O)(=O)c4ccc(N[C@H](CCN5CCOCC5)CSc5ccccc5)c(S(=O)(=O)C(F)(F)F)c4)cc3)CC2)C1 [Navitoclax] (partner 0.5 µM)
Outline: (§1)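 Relative viability is defined as nuclei in treated wells over nuclei in vehicle wells. Duplicate plates were run and medians reported. Lung cancer cell lines in 1536-well plates were dosed by pin tool one day after seeding, with one drug or with a fixed anchor-drug dose plus five library-drug doses (not always all listed) in √10 steps, and nuclei were counted after 5 days.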

[3] = compound: C1CN(CCN1)C2=CC=C(C=C2)C3=CN4C(=C(C=N4)C5=CC=NC6=CC=CC=C56)N=C3 [DM3189] + C[C@]1(O)C[C@@H](c2nc(-c3ccc4ccc(-c5ccccc5)nc4c3)c3c(N)nccn32)C1 [Linsitinib] (partner 1 µM)
Outline: as §1

[4] = compound: C1CN(CCN1)C2=CC=C(C=C2)C3=CN4C(=C(C=N4)C5=CC=NC6=CC=CC=C56)N=C3 [DM3189] + CC(C)C[C@H](NC(=O)[C@H](Cc1ccccc1)NC(=O)c1cnccn1)B(O)O [Bortezomib] (partner 0.002 µM)
Outline: as §1

[5] = compound: C1CN(CCN1)C2=CC=C(C=C2)C3=CN4C(=C(C=N4)C5=CC=NC6=CC=CC=C56)N=C3 [DM3189] + C[C@@H](Oc1cc(-c2cnn(C3CCNCC3)c2)cnc1N)c1c(Cl)ccc(F)c1Cl [Crizotinib] (partner 1 µM)
Outline: as §1

[6] = compound: C1CN(CCN1)C2=CC=C(C=C2)C3=CN4C(=C(C=N4)C5=CC=NC6=CC=CC=C56)N=C3 [DM3189] + CS(=O)(=O)N1CCN(Cc2cc3nc(-c4cccc5[nH]ncc45)nc(N4CCOCC4)c3s2)CC1 [Pictilisib] (partner 1 µM)
Outline: as §1

[7] = compound: C1CN(CCN1)C2=CC=C(C=C2)C3=CN4C(=C(C=N4)C5=CC=NC6=CC=CC=C56)N=C3 [DM3189] + CS(=O)(=O)CCNCc1ccc(-c2ccc3ncnc(Nc4ccc(OCc5cccc(F)c5)c(Cl)c4)c3c2)o1 [Lapatinib] (partner 2 µM)
Outline: as §1

[8] = compound: C1CN(CCN1)C2=CC=C(C=C2)C3=CN4C(=C(C=N4)C5=CC=NC6=CC=CC=C56)N=C3 [DM3189] + COc1cc2c(Oc3ccc(NC(=O)C4(C(=O)Nc5ccc(F)cc5)CC4)cc3F)ccnc2cc1OCCCN1CCOCC1 [Foretinib] (partner 0.25 µM)
Outline: as §1

[9] = compound: C1CN(CCN1)C2=CC=C(C=C2)C3=CN4C(=C(C=N4)C5=CC=NC6=CC=CC=C56)N=C3 [DM3189] + O=C(c1cc(Cc2n[nH]c(=O)c3ccccc23)ccc1F)N1CCN(C(=O)C2CC2)CC1 [Olaparib] (partner 8 µM)
Outline: as §1

[10] = compound: C1CN(CCN1)C2=CC=C(C=C2)C3=CN4C(=C(C=N4)C5=CC=NC6=CC=CC=C56)N=C3 [DM3189] + Cc1nc(NC(=O)N2CCC[C@H]2C(N)=O)sc1-c1ccnc(C(C)(C)C(F)(F)F)c1 [Alpelisib] (partner 2 µM)
Outline: as §1

EBC-1
relative viability ([1]; 0.08 µM): 0.974
relative viability ([1]; 0.253 µM): 0.989
relative viability ([1]; 0.8 µM): 0.963
relative viability ([1]; 2.53 µM): 1.07
relative viability ([2]; first compound 0.08 µM): 0.48
relative viability ([2]; first compound 0.253 µM): 0.356
relative viability ([2]; first compound 0.8 µM): 0.478
relative viability ([2]; first compound 2.53 µM): 0.391
relative viability ([3]; first compound 0.08 µM): 0.993
relative viability ([3]; first compound 0.253 µM): 0.965
relative viability ([3]; first compound 0.8 µM): 0.869
relative viability ([3]; first compound 2.53 µM): 1.06
relative viability ([4]; first compound 0.08 µM): 0.63
relative viability ([4]; first compound 0.253 µM): 0.611
relative viability ([4]; first compound 0.8 µM): 0.483
relative viability ([4]; first compound 2.53 µM): 0.551
relative viability ([5]; first compound 0.08 µM): 0.196
relative viability ([5]; first compound 0.253 µM): 0.183
relative viability ([5]; first compound 0.8 µM): 0.164
relative viability ([5]; first compound 2.53 µM): 0.179
relative viability ([6]; first compound 0.08 µM): 0.419
relative viability ([6]; first compound 0.253 µM): 0.435
relative viability ([6]; first compound 0.8 µM): 0.344
relative viability ([6]; first compound 2.53 µM): 0.285
relative viability ([7]; first compound 0.08 µM): 0.228
relative viability ([7]; first compound 0.253 µM): 0.214
relative viability ([7]; first compound 0.8 µM): 0.214
relative viability ([7]; first compound 2.53 µM): 0.2
relative viability ([8]; first compound 0.08 µM): 0.11
relative viability ([8]; first compound 0.253 µM): 0.106
relative viability ([8]; first compound 0.8 µM): 0.0886
relative viability ([8]; first compound 2.53 µM): 0.0977
relative viability ([9]; first compound 0.08 µM): 0.858
relative viability ([9]; first compound 0.253 µM): 0.778
relative viability ([9]; first compound 0.8 µM): 0.71
relative viability ([9]; first compound 2.53 µM): 0.673
relative viability ([10]; first compound 0.08 µM): 0.864
relative viability ([10]; first compound 0.253 µM): 0.759
relative viability ([10]; first compound 0.8 µM): 0.817
relative viability ([10]; first compound 2.53 µM): 0.985
